Our source for the EC50, IC50 and outcome values is PubChem BioAssay AID179 (DTP/NCI, 2004).

In general, EC50 refers to the concentration giving half of the maximal effect. Usually IC50 stands for the concentration needed to halve the response being measured.

This assay deals with CEM cells HIV-1 protection, formazan growth assay. The assay is described as follows: NCI AIDS Antiviral Assay. The settings on record: for IC50: measured here: growth of uninfected CEM cells. The essentials:
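Protection of CEM cells against HIV-1 was scored from cell growth (soluble formazan) across five concentrations, with parallel uninfected cells. Lack of protection may reflect toxicity.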

The structures appear in SMILES notation. Where “and” joins values, the source holds several entries; their conditions need not be identical. Equal values may be shown once. Calls of active or inactive are those of the source.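 How the source made its calls: active means compounds giving half or more protection of infected cells from virus-caused growth loss, again on retest; inactive means the rest.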 Where only a bound is given, the exact number is not on record here.

With `CCCCN(CCCC)CCCOC(=O)c1ccc2oc3ccc(C(=O)OCCCN(CCCC)CCCC)cc3c2c1`, the EC50 is above 38.9 µM and the 50% inhibitory concentration (IC50) came out at 10.5 µM. The matching figures for `COc1ccc(/C(=N/NC(N)=O)C(c2ccc(OC)cc2)C2C(=O)Oc3ccccc32)cc1` (configuration not stated): above 30.2 µM and above 30.2 µM. Taken in the same sequence, the figures for `COC(CCC[N+](C)(C)C)CC[N+](C)(C)C` (configuration not stated) were above 100 µM and above 100 µM. As to `CC(=O)CC(O)(C(F)(F)Cl)C(F)(Cl)Cl` (configuration not stated), the EC50 was above 200 µM and the IC50 is above 200 µM.

Take `COC1/C=C\C=C(/C)C(=O)NC2=CC(=O)C(N)=C(CC(C)CC(OC)C(O)C(C)C=C(C)C1OC(N)=O)C2=O` (configuration not stated): the EC50 was above 2 µM and the IC50 was 0.0661 µM. Regarding `Cc1ccc(Oc2nc(Cl)nc(Oc3ccc(C)cc3)n2)cc1`, the EC50 was above 200 µM and the IC50 was above 200 µM.

As for `CCOC(=O)Nn1c(CC#N)nnc1Cc1ccccc1`, the EC50 is above 200 µM and the IC50 was above 200 µM. With `N#CC1C(C#N)C2CC1C1N=NN(c3ccccc3)C21` (configuration not stated), the EC50 is above 200 µM and the half-maximal inhibitory concentration (IC50) is above 200 µM.

Turning to `COc1cc2c(cc1OC)C13CCN4CC5CCOC6CC(=O)N2C1C6C5CC43` (configuration not stated), the EC50 was above 200 µM and the IC50 is above 200 µM.

As to `C/C(=C/C=C(/C)C(=O)O)C(=O)O`, the EC50 was above 1480 µM and the IC50 was above 1480 µM. `COc1ccccc1C=C1C(=O)NC(=O)NC1=O`: the EC50 was above 145 µM and the IC50 is above 145 µM.

On to `O=C(OC[C@H]1OCC(=O)[C@@]2(OC(=O)c3ccccc3)[C@@H]1[C@H]1C=C[C@@H]2C1)c1ccccc1`, for which the outcome was inactive. In the case of `O=S(=O)(c1ccccc1)N1CCC1c1ccccc1` (configuration not stated), the result was inactive. Take `CCc1cccc(NC(=O)c2cc(/C=C/c3ccccc3)[nH]c(=S)n2)c1`: the EC50 is above 347 µM and the IC50 was above 347 µM. In the case of `O=C1CCCc2cc3c(cc21)CC1(C3)Cc2ccc3c(c2C1)C(=O)CCC3` (configuration not stated), the EC50 was above 200 µM and the IC50 came to 16.2 µM. For the compound `O=C1Oc2ccccc2C(=O)/C1=C/N1C(=O)/C(=C/c2ccc3c(c2)OCO3)SC1=S`, the EC50 was above 200 µM and the IC50 came out at 20.4 µM. Take `O=C(O)CCC(=O)NC(c1ccccc1)(c1ccccc1)c1ccccc1`: the EC50 is above 200 µM and the IC50 was above 200 µM. `O=C(OCC(Cl)(Cl)Cl)O[C@@H]1CCCC1(c1ccccc1)c1ccccc1`: the EC50 is above 135 µM and the IC50 is 49 µM. In the case of `C#CC(O)Cc1ccc(OC)c2occc12` (configuration not stated), the EC50 was above 200 µM and the IC50 stood at 117 µM. As to `c1nc2cscc2c2cscc12`, the result was inactive. With `CCOC1(C)Nc2cc(OC)cc3c2N1C(=O)CCS3` (configuration not stated), the EC50 is above 200 µM and the IC50 came out at 95.5 µM.

As for `Ic1cc2c(cc1C1SCCCS1)OCO2`, the EC50 is above 251 µM and the IC50 is above 251 µM. Consider `O=C1OC(=O)C2C1C(c1ccc(Cl)cc1)N1C3C(=O)OC(=O)C3C(c3ccc(Cl)cc3)N21` (configuration not stated), for which the EC50 is above 28.8 µM and the IC50 was above 28.8 µM. For `COc1ccc(C(c2c(O)c3ccccc3oc2=O)N2CCOCC2)c(OC)c1` (configuration not stated), the EC50 is above 200 µM and the IC50 is 91.2 µM. Taken in the same sequence, the figures for `NC(=O)NC(=O)C(Cc1ccc(Cl)cc1)c1ccccc1` (configuration not stated) were above 85.1 µM and above 85.1 µM. The matching figures for `COc1ccc2c(c1)CCc1cnoc1-2`: above 178 µM and 110 µM. Taken in the same sequence, the figures for `CC(=O)NC(CCCCNC(=O)OC(C)(C)C)C(=O)O` (configuration not stated) were above 200 µM and above 200 µM.

For the compound `O=C(NNc1cn[nH]c(=O)c1Cl)/C(=C/c1ccc2c(c1)OCO2)NC(=O)c1ccccc1`, the EC50 was above 200 µM and the IC50 is 162 µM. Taken in the same sequence, the figures for `N#CC1=CNc2ccccc2N=C1N` were above 200 µM and above 200 µM. As to `COc1ccc(/C=C/C(=O)c2cc(C(C)(C)C)c(O)c(C(C)(C)C)c2)cc1`, the EC50 is above 10.2 µM and the IC50 came out at 5.01 µM.

Turning to `CC(C)(C)C1CC[C@H]2c3c([nH]c4ccccc34)[C@H]3C(=O)N(c4ccc(F)cc4)C(=O)[C@H]3[C@H]2C1` (some centres not stated), the EC50 was above 11.7 µM and the IC50 is above 11.7 µM. Turning to `O=Cc1cn(CCCCCCCCn2cc(C=O)c3ccccc32)c2ccccc12`, the EC50 is above 200 µM and the 50% inhibitory concentration (IC50) was above 200 µM.

For `CCOC(=O)C(C(=O)OCC)C1c2ccccc2-c2ccccc21`, the EC50 was above 200 µM and the IC50 was found to be 77.6 µM. Turning to `COc1ccc(NC(=O)CC(=O)N2N=C(C)C(N=Nc3ccc(C(=O)O)cc3)C2=O)cc1` (configuration not stated), the EC50 is above 200 µM and the IC50 worked out at 95.5 µM.

For `C#CCN(N=O)C(=O)NCCCC(NC(C)=O)C(=O)NCc1ccccc1` (configuration not stated), the EC50 is above 676 µM and the IC50 was 51.3 µM. The matching figures for `CC1(C)CC2=NO[Se]3=C2C(=NO3)C1`: above 3.55 µM and 0.191 µM. As to `C=C1C(=O)OC(CCCCCCCCCCCCC)C1C(=O)O` (configuration not stated), the EC50 was above 3.24 µM and the IC50 was above 3.24 µM.

Consider `CCOC(=O)[C@H]1Nc2ccc(Cl)cc2[C@H]2c3ccccc3O[C@H]21`, for which the EC50 was above 30.2 µM and the IC50 is above 30.2 µM. Take `[Ni+2].[O-]/C(=N\N=C/c1cccc(C(F)(F)F)c1)c1ccncc1.[O-]/C(=N\N=C\c1cccc(C(F)(F)F)c1)c1ccncc1`: the EC50 is above 100 µM and the IC50 was found to be 15.8 µM. With `O=C(O)[C@@H]1CCS(=O)(=O)N1`, the EC50 is above 200 µM and the IC50 is above 200 µM. Consider `CC1(C)N([O-])[N+](=O)C1(C)C`, for which the EC50 was above 200 µM and the IC50 is above 200 µM.

On to `COC(=O)c1cc(OS(=O)(=O)C(F)(F)F)c(=O)n2c1CCCC2`, for which the EC50 was above 200 µM and the IC50 worked out at 89.1 µM. As for `O=C(/C=C/c1cccnc1)c1ccccc1`, the EC50 was above 123 µM and the IC50 worked out at 7.59 µM. Take `NC(=O)c1ncn2c1NC(=O)CC2`: the outcome was inactive. Regarding `O=C(O)c1cccc(S(=O)(=O)c2ccc([N+](=O)[O-])cc2)c1`, the EC50 is above 200 µM and the IC50 is above 200 µM. `COC(=O)C(C)[P+](c1ccccc1)(c1ccccc1)c1ccccc1` (configuration not stated): the EC50 was above 200 µM and the IC50 came to 5.75 µM. Taken in the same sequence, the figures for `CN1N=C(c2ccncc2)OC1c1ccc(C(F)(F)F)cc1` (configuration not stated) were above 200 µM and 132 µM. For `COc1cc(C(=O)N2CCc3c([nH]c4c([N+](=O)[O-])c(OC)ccc34)C2C)cc(OC)c1OC` (configuration not stated), the result was inactive. Regarding `c1ccc2c(c1)[nH]c1c2nc2sccn21`, the EC50 was above 234 µM; the IC50 is > 145 µM and 214 µM. `CC(C)=CCN1c2ccccc2NC(=O)CC1C` (configuration not stated): the EC50 was 7.94 µM and the IC50 was 91.2 µM. For `CCOC(=O)/C(C#N)=C/c1cccc(Cl)c1`, the EC50 is above 79.4 µM and the IC50 was above 79.4 µM. Turning to `NS(=O)(=O)c1ccc(Nc2c3ccccc3nc3c(C(=O)N4CCN(CCO)CC4)ccc(Cl)c23)cc1`, the EC50 is above 49 µM and the half-maximal inhibitory concentration (IC50) is above 49 µM. Consider `CCOP(=S)(OCC)SC(C)(C)C`, for which the EC50 was above 107 µM and the IC50 is above 107 µM. Regarding `CCCCc1c2c(nc3c1CCc1cc4cc5c(nc4nc1-3)-c1nc3c(c(CCCC)c1CC5)CCC/C3=C\c1ccccc1)/C(=C/c1ccccc1)CCC2`, the EC50 was above 1.95 µM and the IC50 is above 1.95 µM.

Take `O=[N+]([O-])c1cccc2nnccc12`: the EC50 was above 200 µM and the IC50 worked out at 22.9 µM.

For the compound `CNC(=S)N/N=C(\C)c1cc(OC)ccc1O`, the EC50 is above 200 µM and the half-maximal inhibitory concentration (IC50) was 14.5 µM.

Turning to `CCOC(=O)C(=O)c1c2cn(O)nc(OC)c-2nc1[N+](=O)[O-]`, the EC50 was above 813 µM and the IC50 came to 537 µM. The matching figures for `Cc1cc2c(C(C)C)c(O)c(O)c(C=NCC3CCCN4CCCCC34)c2cc1-c1cc2c(C=NCC3CCCN4CCCCC34)c(O)c(O)c(C(C)C)c2cc1C` (configuration not stated): 4.68 µM and 6.61 µM. With `CCOC(=O)OC1C(Br)C2CCC1(C)C2(C)C` (configuration not stated), the EC50 is above 200 µM and the IC50 is above 200 µM. Take `NC(=S)N/N=C1\CCCC\C1=N/NC(N)=S`: the EC50 is above 200 µM and the IC50 was found to be 17.8 µM. For `CC(/C(=N\Nc1ccccc1)c1ccc(O)cc1)C1C(=O)Oc2ccccc21` (configuration not stated), the outcome was inactive. For the compound `Nc1nc(Cl)c(N)c(NCC2(CO)CC2)n1`, the EC50 is above 200 µM and the IC50 was above 200 µM. With `Cc1ccc2c(c1)CC1(Cc3c(C)cccc3C1=O)C2=O` (configuration not stated), the EC50 is above 200 µM and the IC50 was above 200 µM. Consider `COc1cccc2c1C(c1cccc3ccccc13)OC2=O` (configuration not stated), for which the EC50 is above 45.7 µM and the IC50 worked out at 7.94 µM. On to `Clc1nc(NC2CCCCC2)nc(NC2CCCCC2)n1`, for which the outcome was inactive. On to `N#Cc1ccccc1C(Cl)(Cl)c1cnccn1`, for which the EC50 is above 490 µM and the IC50 amounted to 64.6 µM. The matching figures for `c1cc(SSc2ccncc2)ccn1`: above 200 µM and 25.1 µM. As for `CCCC(=O)Nc1ccc(C2=NNC(=O)C3CC23)cc1` (configuration not stated), the EC50 is above 200 µM and the IC50 was above 200 µM.

As for `CCCCCCCCCCNc1nc(F)nc(Nc2cc3ccc(OC)cc3oc2=O)n1`, the EC50 is above 39.8 µM and the half-maximal inhibitory concentration (IC50) was found to be 7.08 µM. The matching figures for `COc1cc(CNc2cnc3ccc(N)cc3n2)cc(OC)c1OC`: above 525 µM and 35.5 µM. Turning to `CCCCCCCCCCCCC1N=C(N)N2CCCC2=C1C(=O)OC` (configuration not stated), the EC50 is above 200 µM and the IC50 amounted to 4.9 µM. In the case of `C=CC[P@]1(=O)O[C@H](c2ccccc2)C(C)N1C(C)C` (some centres not stated), the result was inactive. As for `CCOC(=O)C(=O)N(CC(=O)OC)C(=O)Cc1ccccc1`, the EC50 is 513 µM and the IC50 turned out to be 813 µM.

As to `CC(=O)OCC1=C(C(=O)O)N2C(=O)C(NC(=O)CSc3ccncc3)C2SC1` (configuration not stated), the concentration for a half-maximal effect (EC50) was 61.7 µM and the half-maximal inhibitory concentration (IC50) came to 631 µM. The matching figures for `CCCCN(CCCC)CCCNc1c2c(nc3cc(Cl)ccc13)CCCC2`: above 200 µM and 38.9 µM.
